Experiments:
[1] = target: T1, Aβ(1-40) fibrils (Homo sapiens, UniProt P05067); experiment: EuLISA of murine 11-1F4 on synthetic amyloid fibrils with or without p66; format: binding; conditions: p66 added to fibril-coated wells
T1 construct: synthetic amyloid fibrils composed of rVλ6Wil (AL fibrils) or Aβ(1-40); host or cells: synthetic peptide fibrils
Protocol: To assess the interaction of 11-1F4 with synthetic amyloid fibrils, we evaluated the interaction of murine 11-1F4 with synthetic amyloid fibrils composed of the λ6 light chain Wil-associated with light chain (AL) amyloidosis, or Aβ(1-40), associated with Alzheimer's disease and cerebral amyloid angiopathy. More particularly, Costar high binding plates were coated with 50 μl per well of […] of synthetic amyloid fibrils composed of rVλ6Wil (AL fibrils) or Aβ(1-40) overnight at 37° C. The plates were washed with 1× solution of phosphate buffered saline with 0.05% (v/v) tween 20 (PBST)—similar wash steps were performed between each step. As a “blocking step” the plates were incubated for 1 h at 37° C. with 200 μl of 1% (w/v) BSA in PBS per well. The murine 11-1F4 mAb was added from 100 nM (in BSAT), as a starting concentration, and diluted 1:2 across the microplate and incubation for 1 h at 37° C. Biotinylated goat anti-mouse secondary antibodies (Sigma) were used at a 1:3000 dilution in BSAT. Europium-conjugated streptavidin (Perkin Elmer) was added (1:1000 dilution of stock) as a detection medium and the plate incubated for 1 h 37° C. […] was quantified following addition of enhancement solution (Perkin Elmer) and the time-resolved fluorescence measured using a Victor 3 Wallac plate reader (Perkin Elmer).

[2] = p66 and 11-1F4 on BSA-blocked wells without fibrils; format: binding; conditions: absence of fibrils
[3] = target: T2, AA amyloid (Mus musculus, UniProt P05367); experiment: In vivo pre-targeting of ^125I-11-1F4 to systemic AA amyloid; set-up: species or system mice
T2 construct: from tissue; host or cells: organs of living H2-L^d-huIL-6 Tg Balb/c mice after AEF injection
T2 sequence (P05367 20-94 limits assumed): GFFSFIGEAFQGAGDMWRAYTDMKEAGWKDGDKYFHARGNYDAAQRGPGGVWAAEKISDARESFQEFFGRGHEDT
Protocol: (§1) Systemic visceral AA amyloidosis was induced in H2-L^d-huIL-6 Tg Balb/c transgenic mice that constitutively express the human interleukin-6 transgene, by iv injection of 10 μg of purified, splenic AA amyloid (amyloid enhancing factor; AEF) in 100 μL of sterile phosphate-buffered saline (PBS). Peptide p66 pre-targeting of ^125I-11-1F4 was evaluated in mice at 3-4 wk post AEF injection when amyloid load was modest.
Three cohorts of 3 mice, each received ˜400 μg of unlabeled peptide p66, and a second group of 3 cohorts were given peptide p5+14 as a control. Twenty-four hours after the peptide injection all mice were administered ˜150 μCi (˜20 μg) of ^125I-11-1F4 IV in the lateral tail vein. One group of p66 mice (n=3) and one group of p5+14 control mice (n=3) were euthanized at 24, 48 and 72 h post injection of 11-1F4 mAb and the organs harvested at necropsy for fixation, followed by microautoradiographic and immunohistochemical analyses.
For autoradiography, 6-μm-thick sections were cut from formalin-fixed, paraffin-embedded blocks, containing tissues from mice that had received […]. The sections were placed on Plus microscope slides (Fisher Scientific), dipped in NTB-2 emulsion (Eastman Kodak), stored in the dark, and developed after a 4 day exposure. Each section was counterstained with hematoxylin and eosin.
Formalin-fixed paraffin embedded tissue sections, from mice treated with p66 peptope or peptide p5+14 were subjected to antigen retrieval using citrate buffer (pH 6; Dako) 30 min at 90° C. The tissue was then blocked with hydrogen peroxide, casein, and avidin and biotin, per manufacturer's instructions. The biotinylated peptide-reactive mAb (clone 12-3 [described above]) was then added (1.6 μg/mL in PBS) an the samples incubated for 2 h at RT, O/N at 4° C., followed by another 2 h period at RT. […]
The presence of macrophages was detected by staining with mAb Iba-1 (1:8000 diln) followed by addition of biotinylated rabbit anti-mouse secondary reagent (Vector Rabbit Elite kit). […]

[4] = target: T2, AA amyloid; experiment: In vivo binding of ^125I-p66 in AA mice (microautoradiography, SPECT/CT, biodistribution)
Protocol: as §1, with “p66” for “p66 pre-targeting of ^125I-11-1F4”, “4-6” for “3-4”, “significant.” for “modest.”
Imaging was performed using WT or AA amyloid mice (n=3) that were injected with ˜5 μg of ^125I-p66, 125 μCi in the lateral tail vein. After the appropriate uptake time (data for 4 and 72 h pi shown), mice were euthanized by isoflurane inhalation overdose. SPECT images were acquired using an Inveon trimodality imaging platform (Siemens Preclinical Solution, Knoxville, Tenn.) running Inveon Acquisition Workplace software (ver. 2.0). Low energy (^125I; 25-45 keV) gamma photons were acquired at each of 60, 16-sec projections with 90 mm of bed travel. […]
Samples of liver, spleen, pancreas, kidneys, small and large intestines, stomach and heart were harvested post mortem from every mouse undergoing imaging with ^125I-p66. A sample of each was placed into a tared, plastic vial, weighed and the ^125I radioactivity measured using an automated Wizard 3 gamma counter (1480 Wallac Gamma Counter, Perkin Elmer). The biodistribution data were expressed as % injected dose/g tissue (% ID/g). […]

T1 sequence (P05067 672-711 limits assumed): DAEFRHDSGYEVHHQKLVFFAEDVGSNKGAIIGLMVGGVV

Q: For “KAQKAQAKQAKQAQKAQKAQAKQAKQAQKAQKAQAKQAKQ SVTVVT KHYAAFPENLLI [p66]”, which “reactivity of the 11-1F4 mAb with fibrils when p66 was added” value [1] is on record?
A: Its value is “enhanced”.

Q: And the “peptide binding and 11-1F4 reactivity in BSA-blocked wells” value [2]?
A: The value was “no peptide bound and no mAb reactivity was observed”.

Q: What about the “co-localization of ^125I-11-1F4 with AA amyloid after peptide pre-targeting” value ([3]; 24 h post injection of 11-1F4 mAb, peptide given 24 h before mAb) of the same substance?
A: Its value is “exclusively co-localized with the p66-coated AA amyloid”.

Q: And the “liver macrophage infiltration (Iba-1 staining)” value ([3]; 72 h post injection of 11-1F4 mAb, peptide pre-injected, preliminary data)?
A: Its value is “induced macrophage infiltration into the liver and clustering of macrophages around amyloid deposits to a greater degree”.

Q: And the “time post injection at which amyloid in the liver could be readily visualized by SPECT imaging” value ([4]; AA mice, ^125I-p66)?
A: Its value is “at least 72 h”.

Q: And the “binding of radiolabeled peptide to amyloid deposits in vivo” value ([4]; mice with systemic AA amyloidosis, iv, autoradiography vs Congo red)?
A: Its value is “specifically bound the amyloid deposits”.

From patent US10046050B2, “Targeting immunotherapy for amyloidosis” (UNIVERSITY OF TENNESSEE RESEARCH FOUNDATION, priority 2014, dated 2018)
